Reference: patent US6583154B1, “Compounds and methods which modulate feeding behavior and related diseases” (Amgen Inc., priority 1998, dated 2003)
Where a name gives a salt, the structure may show the parent alone.

Compound	melting point
Cc1nc(N2CC=CCC2)c2[nH]c(-c3ccccc3)cc2n1 (as salt: hydrochloride) [Example 65, 2-Methyl-6-phenyl-4-(1,2,3,6-tetrahydropyridinyl)pyrrolo[3,2-d]pyrimidine Hydrochloride]	278 to 279 °C
Cc1nc(N2CCOCC2)c2[nH]c(-c3ccc(F)c(F)c3)cc2n1 (as salt: hydrochloride) [Example 141, 4-[6-(3,4-Difluorophenyl)-2-methylpyrrolo[2,3-e]pyrimidin-4-yl]morpholine Hydrochloride]	> 280 °C
Cc1nc(N2[C@H](C)CCC[C@@H]2C)c2[nH]c(-c3ccccc3)cc2n1 (as salt: hydrochloride) [Example 185, 4-((6S, 2R)-2,6-Dimethyl)-2-methyl-6-phenylpyrrolo[3,2-d]pyrimidine Hydrochloride]	> 270 °C
c1ccc(-c2cc3nc(N4CCCCC4)nc(N4CCCCC4)c3[nH]2)cc1 (as salt: hydrochloride) [Example 208, 6-Phenyl-2,4-dipiperidylpyrrolo[3,2-d]pyrimidine Hydrochloride]	> 272 °C
Cc1nc(N2CCCCC2)c2[nH]c(-c3ccccc3)c(Br)c2n1 (as salt: hydrochloride) [Example 211, 7-Bromo-2-methyl-6-phenyl-4-piperidylpyrrolo[3,2-d]pyrimidine Hydrochloride]	239 to 240 °C
Cc1nc(N2CCCCC2)c2[nH]c(-c3ccc(-c4ccccc4)cc3)cc2n1.Cl (hydrate or solvate)	> 280 °C
Cc1nc(N2CCN(c3ccccc3)CC2)c2[nH]c(-c3ccccc3)cc2n1.Cl (hydrate or solvate)	232 to 234.5 °C
Cc1nc(N2CCCCC2)c2[nH]c(-c3c(F)cccc3F)cc2n1.Cl (hydrate or solvate)	> 280 °C
Cc1nc(N2CCCCC2)c2[nH]c(-c3cc(F)ccc3F)cc2n1.Cl (hydrate or solvate)	279 to 281 °C
Cc1nc(N2CCCCC2)c2[nH]c(-c3ccc(Cl)c(Cl)c3Cl)cc2n1.Cl (hydrate or solvate)	264 to 266 °C
Cc1nc(N2CCCCC2)c2[nH]c(-c3ccccc3Cl)cc2n1.Cl (hydrate or solvate)	240 to 241.5 °C
Cc1nc(N2CCCCC2)c2[nH]c(-c3ccccc3C(F)(F)F)cc2n1.Cl (hydrate or solvate)	> 280 °C
Cc1nc(N2CCCCC2)c2[nH]c(-c3cc(F)cc(F)c3)cc2n1.Cl (hydrate or solvate)	> 280 °C
Cc1nc(N2CCCCC2)c2[nH]c(-c3ccc(O)c(F)c3)cc2n1.Cl (hydrate or solvate)	> 280 °C
Cc1nc(N2CCCCC2)c2[nH]c(-c3ccc4c(c3)CCCC4)cc2n1.Cl (hydrate or solvate)	175 to 177 °C
Cc1nc(N2CCCCC2)c2[nH]c(-c3cnn(-c4ccccc4)c3C)cc2n1.Cl (hydrate or solvate)	> 280 °C
Cc1nc(N2CCCCC2)c2[nH]c(-c3sc(C)nc3C)cc2n1.Cl (hydrate or solvate)	272 to 273.5 °C
Cc1nc(N2CCCCC2)c2[nH]c(-c3ccc(Cl)c(Cl)c3)c(C)c2n1.Cl (hydrate or solvate)	> 280 °C
Cc1nc(N2CCCCC2)c2[nH]c(-c3cc(F)cc(F)c3)c(C)c2n1.Cl (hydrate or solvate)	242 to 245 °C
COc1cccc(-c2cc3nc(C)nc(N4CCCCC4)c3[nH]2)c1.Cl (hydrate or solvate)	241 to 243 °C
Cc1nc(N2CCCCC2)c2[nH]c(-c3cccc(O)c3)cc2n1.Cl (hydrate or solvate)	> 280 °C
CCc1c(-c2ccccc2)[nH]c2c(N3CCCCC3)nc(C)nc12.Cl (hydrate or solvate)	261 to 263 °C
Cc1nc(N2CCCCC2)c2[nH]c(-c3ccc(-c4ccc(F)c(Cl)c4)o3)cc2n1.Cl (hydrate or solvate)	> 280 °C
COc1ccccc1-c1cc2nc(C)nc(N3CCCCC3)c2[nH]1.Cl (hydrate or solvate)	261 to 263 °C

Compound	melting point
Cc1nc(N2CCCCC2C)c2[nH]c(-c3ccc(F)cc3)cc2n1.Cl (centres unmarked) (hydrate or solvate)	274 to 276 °C
Cc1nc(N2CCCCC2)c2[nH]c(-c3ccc(Cl)cc3)c(N3CCCC3)c2n1.Cl (hydrate or solvate)	> 280 °C
Cc1nc(N2CCCCC2)c2[nH]c(-c3sc4ccccc4c3C)cc2n1.Cl (hydrate or solvate)	> 280 °C
Cc1nc(N2CCCCC2)c2[nH]c(CS(=O)(=O)c3ccc(Cl)cc3)cc2n1.Cl (hydrate or solvate)	199 to 201 °C
COc1ccc(-c2c(C)[nH]c3c(N4CCCCC4)nc(C)nc23)cc1.Cl (hydrate or solvate)	170 °C (dec.)
Cc1nc(N2CCCCC2)c2[nH]c(-c3cccnc3)cc2n1.Cl (hydrate or solvate)	> 280 °C
Cc1nc(N2CCCCC2)c2[nH]c(-c3cc4ccccc4s3)cc2n1.Cl (hydrate or solvate)	> 280 °C
Cc1ccc2sc(-c3cc4nc(C)nc(N5CCCCC5)c4[nH]3)c(C)c2c1.Cl (hydrate or solvate)	> 280 °C
COc1cccc2cc(-c3cc4nc(C)nc(N5CCCCC5)c4[nH]3)oc12.Cl (hydrate or solvate)	> 280 °C
Cc1nc(N2CCCCC2)c2[nH]c(C)c(Oc3ccccc3)c2n1.Cl (hydrate or solvate)	> 280 °C
Cc1nc(N2CCCCC2)c2[nH]c(-c3ccc4c(c3)OCO4)c(C)c2n1.Cl (hydrate or solvate)	268 to 269 °C
Cc1nc2c3c(cc(-c4ccccc4)n3CC3CCCCN23)n1.Cl (centres unmarked) (hydrate or solvate)	> 280 °C
Cc1nc(N2CCN(S(=O)(=O)c3cccc4ccccc34)CC2)c2[nH]c(-c3ccccc3)cc2n1.Cl (hydrate or solvate)	195 °C (dec.)
CSc1nc(N2CCCCC2)c2[nH]c(-c3ccccc3)cc2n1.Cl (hydrate or solvate)	281 to 283 °C (dec.)
Cc1nc(N2CCC2)c2[nH]c(-c3ccccc3)cc2n1.Cl (hydrate or solvate)	> 300 °C (dec.)
Cl.c1ccc(-c2cc3ncnc(N4CCCCC4)c3[nH]2)nc1 (hydrate or solvate)	279 to 280 °C
Cc1nc(N2CCCCC2)c2[nH]c(-c3cnccn3)cc2n1.Cl (hydrate or solvate)	280 to 283.5 °C
Cl.c1cnc(-c2cc3ncnc(N4CCCCC4)c3[nH]2)cn1 (hydrate or solvate)	> 280 °C
Cl.c1ccc2oc(-c3cc4ncnc(N5CCCCC5)c4[nH]3)cc2c1 (hydrate or solvate)	278.5 to 281 °C
Cl.c1ccc(-c2[nH]c3c(N4CCCCC4)ncnc3c2-c2ccccc2)cc1 (hydrate or solvate)	266 to 268.5 °C
Cc1nc(N2CCCCC2)c2[nH]c(-c3ccccc3)c(-c3ccccc3)c2n1.Cl (hydrate or solvate)	169 to 171 °C
Cl.FC(F)(F)c1nc(N2CCCCC2)c2[nH]c(-c3ccccc3)cc2n1 (hydrate or solvate)	235.1 to 237.5 °C (dec.)
Cc1nc(N2CCCCC2)c2[nH]c(-c3cc(C)sc3C)cc2n1.Cl (hydrate or solvate)	240 to 241.5 °C
